Literature values as cited in patent US20230002631A1, “WATER-WASHABLE COMPOSITIONS FOR USE IN 3D PRINTING” (BASF SE, priority 2019, published 2023).
Like-named read-outs stand apart in the source and are kept apart here.

Details: for Amount that dissolves in water: room temperature; for Water solubility (g/L at 20° C.): slightly water-soluble reactive diluents (B1b)

Question: Which “Amount that dissolves in water” value does the source give for `C=CC(=O)OCCOCCOCC` [2-(2-ethoxyethoxy)ethyl acrylate(EOEOA), 2-(2-ethoxyethoxy)ethyl acrylate] here?
Answer: 13.4 g/L

Question: With `C=CC(=O)OCCOC(=O)NCCCC` [2-[[(butylamino)carbonyl]oxy]ethyl acrylate] as the compound, how does the “Water solubility (g/L at 20° C.)” value (20° C.) read?
Answer: 5.0 g/L

Question: For `C=CN1CCCCCC1=O` [N-Vinyl-caprolactam (NVC), N-Vinyl-caprolactam], which Water solubility (temperature not given) is on record?
Answer: 40 g/L

Question: For `C=Cn1ccnc1` [N-Vinyl-imidazole (VIM), N-Vinyl-imidazole], which Water solubility (stated in words) is on record?
Answer: Fully miscible

Question: For `C=CN1CCCC1=O` [N-Vinyl-pyrrolidone (NVP), N-Vinyl-pyrrolidone], which Water solubility (20° C.) is on record?
Answer: 100 g/L at 68° F. (20° C.)

Question: For `C=C(C)C(=O)OCCOCCOCCOCCOC(=O)C(=C)C` [Tetraethylene glycol dimethacrylate], which Water solubility (temperature not given) is on record?
Answer: 12.6 g/L

Question: Which Water solubility (temperature not given) does the source give for `C=CC(=O)OCCOCCOCCOC(=O)C=C` [Triethylene glycol diacrylate (TEGDA), Triethylene glycol diacrylate] here?
Answer: 18 g/L

Question: Which “Water solubility (g/L at 20° C.)” value (20° C.) does the source give for `C=CC(=O)OCC1(CC)COCOC1` [cyclic trimethylolpropane formal acrylate] here?
Answer: 9.3 g/L

Question: Which Water solubility (25° C.) does the source give for `C=CC(=O)OCCO` [hydroxyethyl acrylate] here?
Answer: 100 g/L

Question: For `C=C(C)C(=O)OCCO` [hydroxyethyl methacrylate], which “Amount that dissolves in water” value is on record?
Answer: 11.8 g/L

Question: With `C=CC(=O)OCCCO` [hydroxypropyl acrylate] as the compound, how does the Water solubility (25° C.) read?
Answer: 100 g/L

Question: With `C=C(C)C(=O)OCCCO` [hydroxypropyl methacrylate] as the compound, how does the “Water solubility (g/L at 20° C.)” value (20° C.) read?
Answer: <10 g/L

Question: With `C=C(C)C(=O)OCCOCCOCCOC(=O)C(=C)C` [triethylene glycol dimethacrylate] as the compound, how does the “Water solubility (g/L at 20° C.)” value (20° C.) read?
Answer: 3.6 g/L

Question: With `C=CC(=O)OCC(C)OCC(C)OCC(C)OC(=O)C=C` (centres unmarked) [tripropylene glycol diacrylate] as the compound, how does the “Water solubility (g/L at 20° C.)” value (20° C.) read?
Answer: 4.0 g/L

Question: Which Water solubility (temperature not given) does the source give for Poly(ethylene glycol) diacrylate here?
Answer: 21 g/L

Question: With Polyethylene glycol (200) diacrylate as the compound, how does the Water solubility (stated in words) read?
Answer: Water soluble

Question: For Polyethylene glycol (400) diacrylate, which Water solubility (stated in words) is on record?
Answer: Water soluble
